Where two headings read alike, the source gives them in different places.

Format in all cases: cell-based
Assay [1] has as its system VZV (varicella zoster virus, strain ELLEN). Kind of assay: VZV antiviral plaque reduction assay in cell culture. To be noted: WI-38 cell culture monolayers, at least 50% plaque reduction, 6-7 days incubation at 37°C, read-out: ID₅₀(µM) for the following viruses VZV. The method, then:
(§1) Assays were performed in cell culture systems to determine the concentrations of compounds that are effective in preventing several kinds of viral infections.
(§2) HSV-1 (herpes simplex virus type 1, strain Schooler), HSV-2 (herpes simplex virus type 2, strain 186), VZV (varicella zoster virus, strain ELLEN), HCMV (human cytomegalovirus, strain AD 169), MuLV (murine leukemia virus, strain CAS).
(§3) HSV-1, HSV-2, HCMV, and VZV antiviral assays: Virus was adsorbed to WI-38 cell culture monolayers in 6 well culture plates (Costar, Cambridge, MA) for 1 hour prior to addition of maintenance medium containing duplicate dilutions of the test compound. Inhibition of plaque development was evaluated on fixed and stained monolayers after 4 days incubation at 37°C for HSV-1 and HSV-2 and after 6-7 days incubation at 37°C for HCMV and VZV. ID₅₀ values were determined from the drug concentration which conferred at least a 50% plaque reduction compared to virus controls.
Background: Plaque reduction counts the foci of infection that form in a cell layer.

In assay [2] the test system is MuLV (murine leukemia virus, strain CAS). The assay can be described thus: MuLV antiviral assay (XC syncytial plaque assay). To be noted: SC1, SC-1 cells, XC cell overlay, syncytial plaques counted, read-out: ID₅₀(µM) for the following viruses MuLV. The method, then: as §1, §2
MuLV antiviral assay: Antiviral assays using MuLV were performed with some modification, as described by Rowe et al. and Shannon et al.. SC-1 cells were planted at approximately 2 x 10⁵ cell per well in 6 well plates. After overnight incubation at 37°C, the cell cultures were sensitised with DEAS-Dextran for one hour at 37°C, rinsed and inoculated with MuLV. Cultures were re-fed with growth medium containing different concentrations of the test compound. After three more days at 37°C, cultures were re-fed with fresh medium plus test compounds and incubated at 37°C for an additional 3 days. Cultures were then washed to remove medium, ultraviolet light irradiated, and planted with approximately 5 x 10⁵ XC cells per well in cell growth medium containing the appropriate concentration of the test compound. […] Finally the cultures were rinsed, stained and syncytial plaques were counted. […]

For assay [3], the system named is HCMV (human cytomegalovirus, strain AD 169). Kind of assay: HCMV antiviral plaque reduction assay in cell culture. To be noted: WI-38 cell culture monolayers, at least 50% plaque reduction, 6-7 days incubation at 37°C, read-out: ID₅₀(µM) for the following viruses HCMV. The method, then:
as §1, §2, §3

Assay [4] concerns HSV-2 (herpes simplex virus type 2, strain 186). Kind of assay: HSV-2 antiviral plaque reduction assay in cell culture. To be noted: WI-38 cell culture monolayers, at least 50% plaque reduction, 4 days incubation at 37°C, read-out: ID₅₀(µM) for the following viruses HSV-2. The method, then: as §1, §2, §3
Assay [5] has as its system HSV-1 (herpes simplex virus type 1, strain Schooler). Kind of assay: HSV-1 antiviral plaque reduction assay in cell culture. To be noted: WI-38 cell culture monolayers, at least 50% plaque reduction, 4 days incubation at 37°C, read-out: ID₅₀(µM) for the following viruses HSV-1. The method, then: as §1, §2, §3

On to `Nc1nc2c(ncn2[C@@H]2[C@@H](F)[C@H](CO)[C@H]2CO)c(=O)[nH]1` (racemic) [Compound I, (1α,2β,3α,4β)-2-Amino-9-[2-fluoro-3,4-bis(hydroxymethyl)cyclobutyl]-1,9-dihydro-6H-purin-6-one], for which the IC50 in assay [1] (Human alphaherpesvirus 3) was 1.8 to 3.5 µM; in assay [2] it was 3.5 to 7 µM; in assay [3] (Human betaherpesvirus 5), 3.5 to 35 µM; in assay [4] (Human alphaherpesvirus 2, 96 h) it was 0.7 µM; in assay [5] (Human alphaherpesvirus 1, 96 h) it was 0.7 to 1.8 µM.

For the molecule `Nc1ncnc2c1ncn2[C@@H]1[C@@H](F)[C@H](CO)[C@H]1CO` (racemic) [Compound III, (1α,2β,3α,4β)-3-(6-Amino-9H-purin-9-yl)-4-fluoro-1,2-cyclobutanedimethanol], the IC50 in assay [1] (Human alphaherpesvirus 3) is 37 µM; in assay [3] (Human betaherpesvirus 5), 37 µM; in assay [4] (Human alphaherpesvirus 2, 96 h) it was 7.5 to 19 µM; in assay [5] (Human alphaherpesvirus 1, 96 h), 37 µM.

In the case of `O=c1[nH]c(=O)n([C@@H]2[C@@H](F)[C@H](CO)[C@H]2CO)cc1/C=C/Br` [Compound IV, [1S-(1α(E),2β,3α,4β)]-1-[2-fluoro-3,4-bis(hydroxymethyl)cyclobutyl]-5-(2-bromoethenyl)-2,4-(1H,3H)-pyrimidinedione], the IC50 in assay [1] (Human alphaherpesvirus 3) was 28.6 to 286 µM; in assay [3] (Human betaherpesvirus 5), greater than 286 µM; in assay [4] (Human alphaherpesvirus 2, 96 h), greater than 286 µM; in assay [5] (Human alphaherpesvirus 1, 96 h) it was greater than 286 µM.

Take `Nc1nc2c(ncn2[C@@H]2[C@@H](F)[C@H](CO)[C@H]2CO)c(=O)[nH]1` [Compound II, [1S-(1α,2β,3α,4β)]-2-Amino-9-[2-fluoro-3,4-bis(hydroxymethyl)cyclobutyl]-1,9-dihydro-6H-purin-6-one]: the IC50 in assay [1] is no more than 0.7 µM; in assay [3], 18 to 35 µM; in assay [4], 0.4 to 0.7 µM; in assay [5], 0.7 to 1.8 µM.

As to `O=c1[nH]c(=O)n([C@@H]2[C@@H](F)[C@H](CO)[C@H]2CO)cc1/C=C/I` [Compound V, [1S-(1α(E),2β,3α,4β)]-1-[2-fluoro-3,4-bis(hydroxymethyl)cyclobutyl]-5-(2-iodoethenyl)-2,4-(1H,3H)-pyrimidinedione], the IC50 is 2.5 to 25.2 µM in assay [1] (Human alphaherpesvirus 3); greater than 252 µM in assay [3] (Human betaherpesvirus 5); greater than 252 µM in assay [4] (Human alphaherpesvirus 2, 96 h); greater than 252 µM in assay [5] (Human alphaherpesvirus 1, 96 h).

The record behind these values is EP0458363B1, “Fluorinated bis(hydroxymethyl) cyclobutyl purines and pyrimidines” (E.R. SQUIBB & SONS, INC., priority 1990, dated 1991).
